According to patent publication US9334242B2, “Compounds for treatment of cancer” (GTX, INC., priority 2010, dated 2016):
Where two headings read alike, the source gives them in different places.

Key:
OVCAR-8 = assay: Cytotoxicity SRB assay, MDR model parent line; format: cell-based; conditions: Homo sapiens
MES-SA = assay: Growth inhibition SRB assay, parental line; format: cell-based; conditions: Homo sapiens, Table 6, read-out: IC50 ± SEM (nM) MES-SA
MES-SA/DX5 = assay: Growth inhibition SRB assay, P-gp over-expressing line; format: cell-based; conditions: Homo sapiens, Table 6, read-out: IC50 ± SEM (nM) MES-SA/Dx5
[1] = tested on: T1, tubulin colchicine binding site; assay: [3H]-colchicine competition-binding scintillation proximity assay; conditions: SPA
T1 construct: […]; other: SPA

WM-164 melanoma cells = assay: Microtubule imaging (immunofluorescence, Cellomics Cytoskeleton rearrangement kit); format: cell-based, human; conditions: WM-164 cells, 18 h
From the text: Primary antibody for tubulin and fluorescence-labeled secondary antibody were subsequently added to the cells. Cell nuclei were stained by DAPI. Whole Cell Stain Green was also applied to all cells. All images were acquired with an Olympus IX71 inverted fluorescence microscope (Olympus Corp., Tokyo, Japan) with overlays from separate images of tubulin (red), nuclei (blue), and whole cells (green).

PPC-1 = assay: Cytotoxicity / cell growth inhibition, SRB assay; conditions: Homo sapiens
PC-3_TxR = assay: Cytotoxicity SRB assay, paclitaxel-resistant prostate line; conditions: for IC50: Homo sapiens, PC3-TxR, read-out: IC50 ± SEM (nM) PC-3_TxR; for Resistance Factor: PC-3_TxR versus PC-3
WM-164 = assay: Cytotoxicity / cell growth inhibition, SRB assay; format: cell-based; conditions: Homo sapiens, WM164, Table 6A
B16-F1 = assay: Cytotoxicity / cell growth inhibition, sulforhodamine B (SRB) assay; format: cell-based; conditions: Mus musculus, B16-F1, 96 h, 96 h of treatment, read-out: IC50 ± SEM (nM) B16-F1
A375 = assay: Cytotoxicity / cell growth inhibition, SRB assay; format: cell-based; conditions: Homo sapiens, A-375, 96 h, 96 h of treatment, read-out: IC50 ± SEM (nM) A375
DU 145 = assay: Cytotoxicity / cell growth inhibition, SRB assay; conditions: Homo sapiens, DU-145, 96 h, read-out: IC50 ± SEM (nM) DU 145, SRB assay, 96 h of treatment
PC-3 = assay: Cytotoxicity / cell growth inhibition, SRB assay; conditions: Homo sapiens, PC-3, 96 h, read-out: IC50 ± SEM (nM) PC-3, SRB assay, 96 h of treatment
LNCaP = assay: Cytotoxicity / cell growth inhibition, SRB assay; conditions: Homo sapiens, 96 h, read-out: IC50 ± SEM (nM) LNCaP, SRB assay, 96 h of treatment
[2] = tested on: A375 human melanoma xenograft; assay: In vivo anti-tumor activity, A375 human melanoma xenograft on SHO mice; conditions: 25 mg/kg, 31 days
Porcine brain tubulin = assay: In vitro microtubule polymerization assay; format: biochemical
in vivo = conditions: female, Sprague-Dawley, rat, plasma, 10 mg/kg
[3] = Pharmacokinetic study in ICR mice
[4] = Pharmacokinetic study in Sprague-Dawley rats; conditions: rat

## CC(=O)O[C@H]1C(=O)[C@@]2(C)[C@H]([C@H](OC(=O)c3ccccc3)[C@]3(O)C[C@H](OC(=O)[C@H](O)[C@@H](NC(=O)c4ccccc4)c4ccccc4)C(C)=C1C3(C)C)[C@]1(OC(C)=O)CO[C@@H]1C[C@@H]2O [paclitaxel]
OVCAR-8; OVCAR-8, read-out: IC50 (nM) OVCAR-8
  IC50: 4.7 ± 0.1 nM
OVCAR-8; OVCAR-8, read-out: IC50 ± SEM (nm) OVCAR-8
  IC50: 4.7 ± 0.1 nM
MES-SA
  IC50: 2.7 nM
MES-SA/DX5
  IC50: 6.6 nM
[1]
  competition for the tubulin colchicine binding site (in words): flat line
WM-164 melanoma cells
  effect on microtubule arrangement: condensation of microtubules
PPC-1; PPC-1, 96 h, read-out: IC50 ± SEM (nM) PPC-1
  IC50: 2.3 nM
PPC-1; PPC-1, read-out: IC50 ± SEM (nM) PPC-1
  IC50: 2.3 ± 0.8 nM
PPC-1; PPC-1, read-out: IC50 ± SEM (nm) PPC-1
  IC50: 2.3 ± 0.8 nM
PC-3_TxR
  IC50: 97 ± 1 nM
  Resistance Factor: 20

## O=C(c1ccc(F)cc1)c1csc(-c2ccccc2)n1 [compound 12]
WM-164
  IC50: > 10000 nM

## O=C(c1ccc2[nH]ccc2c1)c1csc(-c2cc3ccccc3[nH]2)n1 [compound 21, (2-(1H-indol-2-yl)thiazol-4-yl)(1H-indol-5-yl)methanone]
B16-F1
  IC50: 110 nM
A375
  IC50: 100 nM
DU 145
  IC50: 116 nM
PC-3
  IC50: 87 nM
LNCaP
  IC50: 103 nM
PPC-1; PPC-1, 96 h, read-out: IC50 ± SEM (nM) PPC-1, SRB assay, 96 h of treatment
  IC50: 76 nM

## O=C(c1ccc(F)cc1)c1c[nH]c(-c2ccc(Cl)cc2)n1 [12fb, (2-(4-chlorophenyl)-1H-imidazol-4-yl)(4-fluorophenyl)methanone]
[2]
  tolerability (body weight, physical activity): well tolerated

## COc1cc(C(=O)c2csc(Nc3ccc4[nH]ccc4c3)n2)cc(OC)c1OC [compound 55, (2-(1H-indol-5-ylamino)thiazol-4-yl)(3,4,5-trimethoxyphenyl)methanone]
Porcine brain tubulin
  inhibition of tubulin polymerization at 1 μM: 11%
In vivo; oral
  bioavailability: 33%
In vivo; po
  bioavailability: 33%
[3]; mouse, i.v. 10 mg/kg
  MousePK_IV10mgk_Cl: 40 mLmin/kg
  MousePK_IV10mgk_V: 1.3 Lkg
[3]; mouse, oral
  MousePK_Bioavailability: 34 %F
[3]; p.o. 20 mg/kg versus i.v. 10 mg/kg
  oral bioavailability, mice: 34%
[4]; i.v. 5 mg/kg
  RatPK_IV5mgk_V: 1.0 Lkg
[4]; p.o. 10 mg/kg
  RatPK_PO10mgk_AUC: 335 µg·min/mL
  RatPK_PO10mgk_Cmax: 1052 ng/mL
PC-3_TxR
  IC50: 29 ± 1 nM
  Resistance Factor: 1.2
